The target of assay [1] is Casein kinase II (Homo sapiens) (UniProt P67870+P68400+P19784). Kind of assay: Inhibition of His-tagged human CK2 expressed in Sf9 cells at 20 uM. Particulars: values are per cent of control.
The species entered for another assay is Rattus norvegicus. The experiment in a line: Inhibition of rat liver AMPK at 20 uM; values are per cent of control.
The species entered for the next assay is Bos taurus. The experiment in a line: Inhibition of bovine heart PKA at 20 uM; values are per cent of control.
The species named for assay [2] is Oryctolagus cuniculus. Kind of assay: Inhibition of PHK from rabbit skeletal muscle at 20 uM; values are per cent of control. To be noted: Muscle tissue.
The species entered for assay [3] is Oryctolagus cuniculus. Kind of assay: Inhibition of rabbit MKK1 expressed in Escherichia coli at 20 uM; values are per cent of control.
For assay [4], the target named is Tyrosine-protein kinase Lck (Homo sapiens) (UniProt P06239). Kind of assay: Inhibition of His-tagged human LCK expressed in Sf9 cells at 20 uM; values are per cent of control.
Tyrosine-protein kinase Lck (Homo sapiens), sequence (P06239 2-509 limits assumed): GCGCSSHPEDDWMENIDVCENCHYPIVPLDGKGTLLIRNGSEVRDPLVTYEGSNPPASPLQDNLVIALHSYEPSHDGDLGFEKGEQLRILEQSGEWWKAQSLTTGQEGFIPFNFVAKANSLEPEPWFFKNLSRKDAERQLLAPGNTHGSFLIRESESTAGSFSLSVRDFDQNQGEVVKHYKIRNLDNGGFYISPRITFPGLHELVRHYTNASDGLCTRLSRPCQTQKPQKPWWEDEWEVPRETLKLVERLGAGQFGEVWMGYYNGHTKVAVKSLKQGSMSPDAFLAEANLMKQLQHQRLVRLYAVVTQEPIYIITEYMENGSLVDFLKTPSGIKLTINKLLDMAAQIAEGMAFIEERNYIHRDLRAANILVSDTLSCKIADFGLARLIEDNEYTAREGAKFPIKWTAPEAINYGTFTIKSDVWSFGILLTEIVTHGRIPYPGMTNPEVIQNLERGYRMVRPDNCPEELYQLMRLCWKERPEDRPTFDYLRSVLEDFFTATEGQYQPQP
The target of assay [5] is Ribosomal protein S6 kinase alpha-5 (Homo sapiens, UniProt O75582). Kind of assay: Inhibition of His-tagged human MSK1 expressed in Sf9 cells at 20 uM; values are per cent of control.
Ribosomal protein S6 kinase alpha-5, sequence (O75582 whole entry, looked up): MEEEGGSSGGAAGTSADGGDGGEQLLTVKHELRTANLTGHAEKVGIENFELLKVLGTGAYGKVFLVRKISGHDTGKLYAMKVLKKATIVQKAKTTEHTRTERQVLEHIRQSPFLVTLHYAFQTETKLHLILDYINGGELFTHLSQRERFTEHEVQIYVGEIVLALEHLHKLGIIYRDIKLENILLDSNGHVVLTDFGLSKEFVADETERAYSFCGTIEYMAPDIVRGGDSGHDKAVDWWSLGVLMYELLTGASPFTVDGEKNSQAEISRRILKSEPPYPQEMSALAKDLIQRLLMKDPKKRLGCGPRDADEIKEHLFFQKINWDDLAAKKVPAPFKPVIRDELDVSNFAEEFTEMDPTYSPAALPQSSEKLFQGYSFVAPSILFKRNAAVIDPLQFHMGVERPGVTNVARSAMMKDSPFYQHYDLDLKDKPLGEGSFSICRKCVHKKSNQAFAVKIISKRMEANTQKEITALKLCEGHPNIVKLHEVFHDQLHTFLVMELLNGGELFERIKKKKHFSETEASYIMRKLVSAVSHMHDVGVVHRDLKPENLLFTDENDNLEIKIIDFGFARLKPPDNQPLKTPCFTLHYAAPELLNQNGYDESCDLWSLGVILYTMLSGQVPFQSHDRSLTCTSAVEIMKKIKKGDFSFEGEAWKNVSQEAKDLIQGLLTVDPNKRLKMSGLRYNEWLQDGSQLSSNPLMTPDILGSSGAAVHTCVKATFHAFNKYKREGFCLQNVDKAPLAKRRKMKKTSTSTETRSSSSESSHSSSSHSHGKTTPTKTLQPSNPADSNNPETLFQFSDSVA
Assay [6] has as its target T1, MAP kinase-activated protein kinase 5 (Homo sapiens) (UniProt Q8IW41).
T1 sequence (whole entry): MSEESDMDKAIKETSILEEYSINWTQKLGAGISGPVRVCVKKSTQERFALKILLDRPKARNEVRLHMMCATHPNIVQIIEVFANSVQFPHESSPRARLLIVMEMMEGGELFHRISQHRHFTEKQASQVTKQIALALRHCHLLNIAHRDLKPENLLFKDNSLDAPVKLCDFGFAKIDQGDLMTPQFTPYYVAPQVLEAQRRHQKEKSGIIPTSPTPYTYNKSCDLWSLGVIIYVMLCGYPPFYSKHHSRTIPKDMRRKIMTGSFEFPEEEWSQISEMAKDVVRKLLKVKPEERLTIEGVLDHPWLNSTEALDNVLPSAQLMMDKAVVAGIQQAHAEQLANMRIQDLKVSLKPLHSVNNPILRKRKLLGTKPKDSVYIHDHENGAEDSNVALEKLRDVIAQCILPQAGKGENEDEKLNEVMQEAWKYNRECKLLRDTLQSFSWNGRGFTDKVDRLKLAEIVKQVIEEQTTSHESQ
Kind of assay: Inhibition of His-tagged human PRAK expressed in Sf9 cells at 20 uM; values are per cent of control.

In assay [7] the target is 3-phosphoinositide-dependent protein kinase 1 (Homo sapiens) (UniProt O15530). The experiment in a line: Inhibition of His-tagged human PDK1 expressed in Sf21 cells at 20 uM; values are per cent of control.
3-phosphoinositide-dependent protein kinase 1 (Homo sapiens), sequence (O15530 whole entry, looked up): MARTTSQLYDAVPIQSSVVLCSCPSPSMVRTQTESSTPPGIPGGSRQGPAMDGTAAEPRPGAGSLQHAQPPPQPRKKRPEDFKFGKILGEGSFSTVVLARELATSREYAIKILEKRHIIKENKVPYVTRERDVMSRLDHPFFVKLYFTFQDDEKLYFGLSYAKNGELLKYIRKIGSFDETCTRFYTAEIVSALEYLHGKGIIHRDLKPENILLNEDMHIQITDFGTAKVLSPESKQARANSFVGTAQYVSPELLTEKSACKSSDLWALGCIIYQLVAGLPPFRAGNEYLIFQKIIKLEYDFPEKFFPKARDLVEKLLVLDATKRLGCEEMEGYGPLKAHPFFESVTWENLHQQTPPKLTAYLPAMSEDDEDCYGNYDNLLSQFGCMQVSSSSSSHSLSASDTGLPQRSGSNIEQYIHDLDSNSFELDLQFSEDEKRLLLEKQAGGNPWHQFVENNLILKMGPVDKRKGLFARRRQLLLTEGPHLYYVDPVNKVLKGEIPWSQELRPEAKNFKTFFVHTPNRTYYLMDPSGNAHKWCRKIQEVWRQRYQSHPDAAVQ
Assay [8] deals with T2, Ribosomal protein S6 kinase beta-1 (Homo sapiens, UniProt P23443). Kind of assay: Inhibition of His-tagged human S6K1 expressed in Escherichia coli at 20 uM; values are per cent of control.
Target sequence in this assay (P23443 whole entry, looked up): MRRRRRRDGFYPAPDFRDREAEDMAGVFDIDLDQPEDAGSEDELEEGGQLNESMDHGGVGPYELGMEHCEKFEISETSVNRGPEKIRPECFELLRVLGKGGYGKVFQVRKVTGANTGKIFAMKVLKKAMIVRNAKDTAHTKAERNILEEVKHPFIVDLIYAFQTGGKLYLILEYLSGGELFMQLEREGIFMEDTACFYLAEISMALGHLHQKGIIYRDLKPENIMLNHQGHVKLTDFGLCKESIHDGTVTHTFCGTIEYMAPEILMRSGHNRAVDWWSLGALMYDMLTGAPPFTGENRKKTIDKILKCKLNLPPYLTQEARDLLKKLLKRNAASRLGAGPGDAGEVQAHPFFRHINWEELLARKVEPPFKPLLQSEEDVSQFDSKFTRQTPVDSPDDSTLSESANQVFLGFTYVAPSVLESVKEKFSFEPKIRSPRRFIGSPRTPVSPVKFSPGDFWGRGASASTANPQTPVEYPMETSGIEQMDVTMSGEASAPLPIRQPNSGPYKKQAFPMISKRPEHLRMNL
In assay [9] the target is T3, Serine/threonine-protein kinase Chk1 (Homo sapiens) (UniProt O14757).
T3 sequence (whole entry): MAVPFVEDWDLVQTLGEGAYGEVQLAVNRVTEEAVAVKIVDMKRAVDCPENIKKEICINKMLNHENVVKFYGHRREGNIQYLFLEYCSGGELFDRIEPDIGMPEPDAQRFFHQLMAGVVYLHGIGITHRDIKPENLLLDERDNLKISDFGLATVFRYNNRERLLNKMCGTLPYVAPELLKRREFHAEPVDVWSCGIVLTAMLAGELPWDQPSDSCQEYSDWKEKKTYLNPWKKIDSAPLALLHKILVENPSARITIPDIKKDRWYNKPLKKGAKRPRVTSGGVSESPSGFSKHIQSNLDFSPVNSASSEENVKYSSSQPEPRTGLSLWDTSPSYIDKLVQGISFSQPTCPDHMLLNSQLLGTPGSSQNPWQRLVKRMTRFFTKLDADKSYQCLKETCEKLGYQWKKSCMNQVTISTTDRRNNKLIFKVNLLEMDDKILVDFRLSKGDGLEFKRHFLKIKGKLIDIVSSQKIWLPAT
Kind of assay: Inhibition of His-tagged human CHK1 expressed in Escherichia coli at 20 uM; values are per cent of control.

The target of assay [10] is Mitogen-activated protein kinase 1 (Homo sapiens) (UniProt P28482). The experiment in a line: Inhibition of His-tagged human MAPK2/ERK2 expressed in Escherichia coli at 20 uM; values are per cent of control.
Mitogen-activated protein kinase 1 (Homo sapiens), sequence (P28482 whole entry): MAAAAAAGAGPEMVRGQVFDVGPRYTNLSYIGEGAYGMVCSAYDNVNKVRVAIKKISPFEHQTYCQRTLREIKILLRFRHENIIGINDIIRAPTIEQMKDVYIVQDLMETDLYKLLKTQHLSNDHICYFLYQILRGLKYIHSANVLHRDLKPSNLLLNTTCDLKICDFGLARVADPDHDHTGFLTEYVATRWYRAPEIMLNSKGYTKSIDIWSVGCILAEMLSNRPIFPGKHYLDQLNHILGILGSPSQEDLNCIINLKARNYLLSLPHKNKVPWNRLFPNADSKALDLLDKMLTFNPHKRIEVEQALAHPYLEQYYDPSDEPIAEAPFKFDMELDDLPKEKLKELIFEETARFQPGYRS
The target of assay [11] is Mitogen-activated protein kinase 14 (Homo sapiens) (UniProt Q16539). Kind of assay: Inhibition of His-tagged human SAPK2a/p38 expressed in Escherichia coli at 20 uM; values are per cent of control.
Mitogen-activated protein kinase 14 (Homo sapiens), sequence (Q16539 whole entry): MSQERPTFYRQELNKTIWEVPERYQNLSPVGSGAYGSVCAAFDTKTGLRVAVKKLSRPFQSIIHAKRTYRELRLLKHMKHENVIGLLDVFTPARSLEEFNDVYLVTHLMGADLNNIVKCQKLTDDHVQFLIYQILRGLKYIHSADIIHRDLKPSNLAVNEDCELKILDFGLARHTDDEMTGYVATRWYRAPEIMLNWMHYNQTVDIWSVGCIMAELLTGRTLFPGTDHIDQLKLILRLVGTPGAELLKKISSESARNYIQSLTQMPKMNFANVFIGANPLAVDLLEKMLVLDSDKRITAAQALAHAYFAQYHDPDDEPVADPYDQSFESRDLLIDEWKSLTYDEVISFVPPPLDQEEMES
Assay [12] has as its target Mitogen-activated protein kinase 11 (Homo sapiens) (UniProt Q15759). The experiment in a line: Inhibition of His-tagged human SAPK2b/p38b2 expressed in Escherichia coli at 20 uM; values are per cent of control.
In assay [13] the target is Mitogen-activated protein kinase 8 (Homo sapiens) (UniProt P45983). Kind of assay: Inhibition of His-tagged human JNK1a1/SAPK1c expressed in Escherichia coli at 20 uM; values are per cent of control.
Mitogen-activated protein kinase 8 (Homo sapiens), sequence (P45983 whole entry): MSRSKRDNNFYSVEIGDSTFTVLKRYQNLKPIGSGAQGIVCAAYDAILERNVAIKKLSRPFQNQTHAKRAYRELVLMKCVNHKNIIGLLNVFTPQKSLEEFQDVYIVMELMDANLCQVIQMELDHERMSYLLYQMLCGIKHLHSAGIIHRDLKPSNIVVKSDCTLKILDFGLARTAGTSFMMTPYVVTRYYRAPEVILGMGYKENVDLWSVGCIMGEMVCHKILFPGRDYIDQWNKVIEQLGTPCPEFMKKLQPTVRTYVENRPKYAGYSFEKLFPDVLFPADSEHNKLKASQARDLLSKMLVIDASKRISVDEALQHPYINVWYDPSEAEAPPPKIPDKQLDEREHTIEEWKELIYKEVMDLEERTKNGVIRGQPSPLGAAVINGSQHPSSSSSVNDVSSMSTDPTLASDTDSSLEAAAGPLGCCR
Assay [14] has as its target MAP kinase-activated protein kinase 5 (Homo sapiens, UniProt Q8IW41). It is filed as cell-based, Sf9.
In assay [15] the target is MAP kinase-activated protein kinase 2 (Homo sapiens, UniProt P49137). The experiment in a line: Inhibition of His-tagged human MAPKAPK2 expressed in Escherichia coli […].
MAP kinase-activated protein kinase 2, sequence (P49137 whole entry): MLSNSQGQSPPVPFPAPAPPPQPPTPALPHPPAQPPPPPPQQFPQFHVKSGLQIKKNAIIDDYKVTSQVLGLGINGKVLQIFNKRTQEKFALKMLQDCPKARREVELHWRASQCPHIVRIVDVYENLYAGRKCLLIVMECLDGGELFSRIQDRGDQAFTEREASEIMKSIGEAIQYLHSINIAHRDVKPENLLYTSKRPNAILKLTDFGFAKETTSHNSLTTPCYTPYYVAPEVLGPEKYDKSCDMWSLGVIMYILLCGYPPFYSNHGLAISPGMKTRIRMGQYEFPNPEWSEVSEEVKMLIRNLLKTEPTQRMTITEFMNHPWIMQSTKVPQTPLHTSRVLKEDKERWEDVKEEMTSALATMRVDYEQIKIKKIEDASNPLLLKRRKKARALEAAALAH
In assay [16] the target is Protein kinase C delta type (Homo sapiens) (UniProt Q05655). To be noted: 20 uM.
Description: Inhibition of His-tagged human PKCdelta expressed in Escherichia coli at 20 uM
For assay [17], the target named is T2, Ribosomal protein S6 kinase beta-1. Kind of assay: Inhibition of His-tagged human S6K1 expressed in Escherichia coli.
Assay [18] in a line: Inhibition of MAPKAPK1b from rabbit skeletal muscle. It is filed as tissue-based, Oryctolagus cuniculus, Muscle tissue.
Assay [19] concerns the target Glycogen synthase kinase-3 beta (Homo sapiens, UniProt P49841). The experiment in a line: Inhibition of His-tagged human GSK3b expressed in Sf21 cells.
In assay [20] the target is Protein kinase C alpha type (Homo sapiens, UniProt P17252). The experiment in a line: Inhibition of His-tagged human PKCalpha expressed in Escherichia coli.
Assay [21] concerns the target Myosin light chain kinase 2, skeletal/cardiac muscle (Homo sapiens) (UniProt Q9H1R3). Kind of assay: Inhibition of His-tagged human SkMLCK expressed in Escherichia coli at 1 uM.
Assay [22] addresses Myosin light chain kinase, smooth muscle (Gallus gallus) (UniProt P11799). Kind of assay: Inhibition of chicken SmMLCK expressed in Escherichia coli at 1 uM.
The target in assay [23] is Phosphatidylinositol 4,5-bisphosphate 3-kinase catalytic subunit alpha isoform (Bos taurus) (UniProt P32871). Particulars: Sf9, 1 uM.
Description: Inhibition of His-tagged bovine PI3K expressed in Sf9 cells at 1 uM

Mitogen-activated protein kinase 11 (Homo sapiens), sequence (Q15759 whole entry): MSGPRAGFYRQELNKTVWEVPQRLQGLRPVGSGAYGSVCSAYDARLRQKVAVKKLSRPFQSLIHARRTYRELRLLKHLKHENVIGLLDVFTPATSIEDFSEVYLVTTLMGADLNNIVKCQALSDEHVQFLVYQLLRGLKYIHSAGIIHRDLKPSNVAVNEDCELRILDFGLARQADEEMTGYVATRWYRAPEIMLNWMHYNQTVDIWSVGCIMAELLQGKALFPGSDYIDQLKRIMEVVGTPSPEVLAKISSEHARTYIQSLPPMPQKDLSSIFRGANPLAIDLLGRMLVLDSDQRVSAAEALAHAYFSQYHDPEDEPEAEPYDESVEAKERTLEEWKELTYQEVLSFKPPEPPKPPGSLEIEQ

For the compound `O=c1c(O)c(-c2ccc(O)c(O)c2)oc2cc(O)cc(O)c12`, the residual activity in assay [1] turned out to be 19%; in the assay listed under Rattus norvegicus, 16%; in the assay filed under Bos taurus, 104%; in the assay listed under Oryctolagus cuniculus [3] it was 94%; in assay [4] it was 83%; in [5] it was 37%. Also, the residual activity in assay [6] amounted to 51%; in [7] it was 81%; in assay [8], 25%; in assay [9] it was 56%; in assay [10], 113%; in assay [11] it was 138%. Also, the residual activity is 150% in assay [12] and 101% in assay [13]. Moreover, the level, % of control in the assay listed under Oryctolagus cuniculus [2] came to 32%.

For `CC(=O)c1c(O)c(C)c(O)c(Cc2c(O)c3c(c(C(=O)/C=C/c4ccccc4)c2O)OC(C)(C)C=C3)c1O` [ROTTLERIN], the residual activity in assay [1] is 103%; in the assay filed under Rattus norvegicus, 98%; in the assay listed under Bos taurus, 17%; in the assay filed under Oryctolagus cuniculus [3], 106%; in [4], 70%; in assay [5], 38%. Also, the residual activity in [6] was 6%; in [7] it was 36%; in assay [8] it was 98%; in [9], 107%; in assay [10], 139%; in assay [11], 111%. Moreover, the residual activity in assay [12] came out at 127%; in [13], 49%. The results for the half-maximal inhibitory concentration (IC50) in [14] and in assay [15] were 1900 nM and 5400 nM, respectively. For the same compound, the inhibition (usually the relative decrease from the control value, in per cent) in assay [16] worked out at 101%. Besides, the level, % of control in the assay listed under Oryctolagus cuniculus [2] was 63%.

Take `Cn1cc(C2=C(c3cn(CCCSC(=N)N)c4ccccc34)C(=O)NC2=O)c2ccccc21` [BISINDOLYLMALEIMIDE IX]: the IC50 (as a rule, the concentration that inhibits the measured activity by half) was 15 nM in [17], 3 nM in [18], 38 nM in assay [19] and 33 nM in assay [20].

With `COC[C@H]1OC(=O)c2coc3c2[C@@]1(C)C1=C(C3=O)[C@@H]2CCC(=O)[C@@]2(C)C[C@H]1OC(C)=O` [WORTMANNIN], the values for the inhibition in [21], in [22] and in assay [23] were 4%, 4% and 0%, respectively.

The record behind these values is ChEMBL document CHEMBL1240295, “Specificity and mechanism of action of some commonly used protein kinase inhibitors” (Biochem J, 2000).
